Measurements reported in patent US20260034173A1, “USE OF MANGANESE-CONTAINING COMPOUND IN REDUCING LEVEL OF URIC ACID OF MAMMALIAN SUBJECT” (Shanghai Shiqu Pharmaceutical Technology Co., Ltd., priority 2022, published 2026).

Key:
[1] = system: urate oxidase knockout (UOX KO) mice; assay: Experiment on urate oxidase knockout (UOX KO) mice; type: in vivo; settings: gavage daily; blood and 24-hour urine
From the text: Urate oxidase knockout (UOX KO) mice aged 6 to 8 weeks were selected, and urine and blood were collected after one week of acclimation to test urine uric acid and blood uric acid levels. […] Mice were gavaged with corresponding drugs daily. After the start of drug administration, the blood of mice was collected every other week to prepare serum, and 24-hour urine was collected to detect the uric acid content in the urine using a uric acid assay kit.

[2] = system: oteracil potassium and adenine induced hyperuricemia model mice; assay: Oteracil potassium and adenine induced hyperuricemia model mice; type: in vivo, KM mice; settings: day 6; allopurinol 50 mg/L drinking water, febuxostat 5 mg/kg/day gavage, manganese oxides 1.16 w/w % in diet
From the text: Oteracil potassium and adenine are known to be model drugs capable of inducing hyperuricemia in mice. Specifically, oteracil potassium is a urate oxidase inhibitor that can inhibit further metabolism of uric acid in mice, thereby increasing the concentration of uric acid in the blood of mice; adenine can damage the kidneys, thereby reducing the excretion of uric acid from the kidneys of mice. […] Six days after the beginning of the experiment, 24-hour urine of each group of mice was collected and uric acid content in the urine was detected by the uric acid assay kit to investigate the effects of various experimental substances on the amount of uric acid excreted in the urine of mice.
The control group was fed with basic mouse diet the first day (i.e. the day of the experiment) to the seventh day after the start of the experiment, and the other groups were fed with modeling mouse diet (4.4 w/w % oteracil potassium and 0.44 w/w % adenine were added into the basic mouse diet) for inducing hyperuricemia. […] The uric acid level in urine was measured using a uric acid assay kit (Solarbio, Beijing, China), and the amount of uric acid excreted through urine in 24 hours was calculated based on the urine volume.

[3] = system: oteracil potassium and hypoxanthine induced hyperuricemia model mice; assay: Oteracil potassium and hypoxanthine induced hyperuricemia model mice; type: in vivo, C57BL/6J mice; settings: day 8; benzbromarone 10 mg/kg gavage, allopurinol 50 mg/L drinking water, manganese oxides 1.14 w/w % in diet
Method: Hypoxanthine can be metabolized into uric acid in the body, so it can also be used in combination with oteracil potassium as a model drug for inducing hyperuricemia in mice. In this example, the healthy mice were randomly divided into 7 groups, the mouse hyperuricemia model was established by administering oteracil potassium and hypoxanthine (they were injected intraperitoneally together) to 6 groups of mice, and 1 group of healthy mice injected intraperitoneally with normal saline was taken as the blank control group. The mice of the experimental groups were given the corresponding experimental substances according to the dosing regimen described in the following experimental method.
From the first day (i.e. the day of the experiment) to the eighth day after the start of the experiment, the blank control group was intraperitoneally injected with normal saline at 9:00 a.m. and 5:00 p.m. every day, and the remaining groups were intraperitoneally injected with modeling solution (100 mg/kg hypoxanthine+100 mg/kg oteracil potassium) at 9:00 am, and 5:00 p.m. every day. The benzbromarone group was administered with benzbromarone solution (10 mg/kg) by gavage at 10 am every day. […]

| SMILES | reduction of uric acid in UOX KO mice [1] | amount of uric acid excreted in the urine within 24 hours (FIG. 20) [2] | serum uric acid level (FIG. 22) [3] |
| --- | --- | --- | --- |
| Oc1ncnc2[nH]ncc12 [allopurinol] | effective in reducing uric acid | at a high level | significantly reduced |
| CCc1oc2ccccc2c1C(=O)c1cc(Br)c(O)c(Br)c1 [benzbromarone] | – | – | significantly reduced |
| Cc1nc(-c2ccc(OCC(C)C)c(C#N)c2)sc1C(=O)O [febuxostat] | – | at a high level | – |
